These results are taken from paper PMC5447021, “TNF Lectin-Like Domain Restores Epithelial Sodium Channel Function in Frameshift Mutants Associated with Pseudohypoaldosteronism Type 1B” (Frontiers in Immunology, 2017).

Entries after “also recorded” stand apart in the source; their conditions may differ.

Assay type in all cases: cell-based, human
The subject of one assay is αI68fsβγ-ENaC. The assay is described as follows: Whole-cell patch clamp, αI68fs + WT βγ. The method, then: (§1) Point mutations of α-, β-, γ- and δ-hENaC and PHA1B frameshift mutations of α-hENaC were prepared with the QuikChange Lightning Site-Directed Mutagenesis Kit (Agilent Technologies, CA, USA). Mutagenic primers were designed individually with the Primer Design Program provided on the producer’s website or for the frameshift mutations the same base changes as reported in patients (see Table 2) were performed. Primers were ordered from Sigma-Aldrich, Vienna, Austria.
(§2) HEK-293 cells were transfected 1 day after cell seeding using X-tremeGENE HP DNA transfection reagent (Roche Diagnostics, Mannheim, Germany) according to the manufacturer’s protocol. A set of WT or mutant αβγ- or δβγ-hENaC, or α-, β-, γ-, or δ-hENaC alone was used, and the ratio of DNA to transfection reagent was 1:3. The expression was highest 48–72 h after transfection.
(§3) Electrophysiological experiments were performed as described in detail by Shabbir et al. ([16]). […] Currents were recorded with the patch clamp method in the whole-cell mode. The chamber contained 1 ml of the bath solution of the following composition (in mM): 145 NaCl, 2.7 KCl, 1.8 CaCl2, 2 MgCl2, 5.5 glucose, and 10 HEPES, adjusted to pH 7.4 with 1 M NaOH solution. Micropipettes were pulled from thin-walled borosilicate glass capillaries (Harvard Apparatus, Holliston, MA, USA) with a DMZ Zeitz Puller to obtain electrode resistances ranging from 2 to 5 MΩ. […]
In general terms: Patch clamp records ionic current or voltage across a cell membrane.

The test system of a further assay is αI68fs. Put plainly: Membrane abundance of αI68fs. Conditions: 200 nM, relative to WT control (=1). The method, then:
Cell surface biotinylation was performed as previously described ([26]). In brief, A549 cells or transiently transfected HEK-293 cells were grown in 10 cm dishes in 37°C, 5% CO2 incubator in DMEM medium supplemented with 5% FBS. […] Medium was aspirated, and then cells were washed twice with 10 ml ice-cold phosphate-buffered saline (PBS), covered with 2.5 mg EZ-Link Sulfo-NHS-SS-Biotin (Thermo Scientific, Rockford, USA), dissolved in 10 ml ice-cold PBS, and incubated at 4°C with gentle agitation for 30 min. Fifty milliliters of quenching solution were added to cells; then cells were scraped in solution and transferred to fresh 50 ml tube. Cell suspension was centrifuged at 500 × g for 3 min. Supernatant was discarded, and 5 ml of Tris-buffered saline (TBS) was added to the cell pellet. The cell pellet was resuspended and centrifuged at 500 × g for 3 min. Supernatant was discarded and cell pellet was resuspended in lysis buffer containing protease inhibitor cocktail (10 µM pepstatin A, 10 µM phenylmethylsulfonyl fluoride, and 10 µM leupeptin) and transferred to fresh 1.5 ml centrifuge tube. Cell pellet was then homogenized on ice by ultrasonication using 1 s bursts and incubated on ice for at least 30 min. Intact cells and nuclei were pelleted by centrifugation at 10,000 × g for 2 min under cooling conditions. […] Exposed films were scanned and quantified using ImageJ (NIH, MD, USA). […]

The subject of assay [1] is αP197fs (co-expressed with βγ-ENaC). Put plainly: Whole-cell patch clamp, αP197fs + WT βγ. As to conditions: read-out: EC50, solnatide, HEK-293, whole-cell, -100 mV, n = 5, p < 0.001 vs WT. How it is done:
as §1, §2, §3

Assay [2] relates to βE539A,E542A γE548A,E551A-ENaC (βM2γM2). Put plainly: Whole-cell patch clamp, βM2γM2-ENaC. Conditions: HEK-293, 200 nM solnatide. The method, then: as §1, §2, §3

The term EC50 denotes the concentration at which the effect is half-maximal. `C[C@@H]1NC(=O)CNC(=O)[C@H](CCC(=O)O)NC(=O)[C@@H]2CCCN2C(=O)[C@H]([C@@H](C)O)NC(=O)[C@H](CCC(=O)O)NC(=O)[C@H](CCCNC(=N)N)NC(=O)[C@H](CCC(N)=O)NC(=O)CNC(=O)[C@@H](N)CSSC[C@@H](C(=O)O)NC(=O)[C@H](Cc2ccc(O)cc2)NC(=O)[C@H](Cc2c[nH]c3ccccc23)NC(=O)[C@@H]2CCCN2C(=O)[C@H](CCCCN)NC(=O)[C@H](C)NC(=O)[C@H](CCC(=O)O)NC1=O` [solnatide, L-cysteine, L-cysteinylglycyl-L-glutaminyl-L-arginyl-L-α-glutamyl-L-threonyl-L-prolyl-L-α-glutamylglycyl-L-alanyl-L-α-glutamyl-L-alanyl-L-lysyl-L-prolyl-L-tryptophyl-L-tyrosyl-, cyclic (1→17)-disulfide]: the EC50 in the assay with αI68fsβγ-ENaC (read-out: EC50, solnatide, αI68fs + WT βγ, HEK-293, whole-cell, -100 mV, n = 9) came out at 73.4 ± 13.4 nM; in assay [1], 84 ± 4.9 nM. The “Effect of solnatide on current (words)” value with αI68fsβγ-ENaC (αI68fsβγ-ENaC, HEK-293) was “induced a current increase in αI68fsβγ-ENaC”; in assay [2] (n = 3) it was “A small increase in the amiloride-sensitive Na^+ current was still observed; also recorded: still able to activate βM2γM2-ENaC (not significant) to an equal extent as WT βγ-ENaC”; in assay [2] (n = 3, listed as Solnatide) it was “still increased the amiloride-sensitive sodium current in these mutants”. Moreover, in the assay on αI68fs (5 min, own control 0.15 ± 0.06, p < 0.05 vs control), the “Membrane abundance, solnatide 5 min” value was 0.25 ± 0.07. The “Membrane abundance, solnatide 10 min” value in the assay on αI68fs (10 min, own control 0.15 ± 0.06, p < 0.01 vs control) worked out at 0.32 ± 0.11.
